Each block holds one compound with its values, some of them ahead of it.
Legend:
[1] = test system: KRAS G12D mutated AGS human gastric adenocarcinoma cells; test: Proliferation inhibition of KRAS G12D mutant AGS cells, another experiment with similar protocol (includes MRTX1133); format: cell-based
Method: In another experiment, using a protocol similar to the one described above, the inhibitory activity of some representative compounds of the present invention against KRAS G12D mutated AGS human gastric adenocarcinoma cells was determined.
The synthesis of compound MRTX1133 was performed according to the method described in J. Med. Chem. 2022, 65, 4, 3123-3133.

Panc 04.03 cells = test: 3D proliferation inhibition of KRAS G12D mutated tumor cells, Panc 04.03; format: cell-based; conditions: CTG, 120 hours
Source text: (§1) This experiment evaluated and verified the proliferation inhibitory activity of the representative compounds of the present invention against the following five strains of KRAS-related tumor cells.
(§2) The following materials, reagents and instruments were used in this experiment: Five strains of cells were all from Nanjing Kebai Biotechnology Co., Ltd. (GP2D, CBP60010; HPAC, CBP60539; AsPC-1, CBP60546; KP-4, CBP60541; Panc 04.03, CBP60683); DMEM (Gibco, 11965092); RPMI-1640 (Gibco, SH30809.01); HPAC complete medium (Cobioer, CBP60539M); Fetal bovine serum FBS (Gibco, 10091-148); Insulin (Gibco, 41400045); Methylcellulose (methylcellulose, Sigma, 9004-67-5); Phosphate-buffered saline DPBS (Comning, 21-031-CVC); CellTiter-Glo® Luminescent Cell Viability Assay (Promega, Cat #G7573); 96-well clear flat-bottom black-wall plate (Corning, 3603); EnVision multilabel plate reader (PerkinElmer #2105); CO2 incubator (Thermo Scientific, Model 3 71 Series).
(§3) A sterilized 1% methylcellulose 3D culture medium was prepared in advance. The cells in the logarithmic growth phase were harvested, and a Countstar automatic cell counter based on the principle of the classic trypan blue staining method was used for cell counting and detecting cell viability to ensure that the cell viability was above 90%. The cell concentrations of GP2D, HPAC, AsPC-1, KP-f4, and Panc 04.03 were adjusted so that the final concentration of methylcellulose was 0.65%, and the mixture was allowed to stand after being well-mixed. After there were no visible air bubbles in the cell suspension, 80 μL of the cell suspension was added to each well of a 96-well plate, with a total of 1000-2000 cells. The cells in the 96-well plate were cultured overnight at 37° C., 5% CO2, and 95% humidity.
(§4) Drug Preparation for IC50 Determination: First, a 10 mM DMSO stock solution of each compound was prepared. For the first dilution, using DMSO as the solvent, each compound was first diluted to 5 mM and then serially diluted 3-fold to obtain 9 concentrations, preparing DMSO solutions of each compound at different concentrations. For the second dilution, a 5-fold diluted solution of each compound was prepared by a 1:100 dilution, using the complete medium as the solvent. […]
(§5) The cells in the 96-well plate with the added drugs were further cultured at 37° C. and 5% CO2 for 120 hours, and then a CTG analysis was performed. […] The cell plate was placed at room temperature for 20 minutes to stabilize the luminescence signal. The luminescence value was read, and the data were collected.
(§6) The data were analyzed using GraphPad Prism 9.0 software. Non-linear S-curve regression was used to fit the data to obtain the dose-response curve, and the IC50 value (nM) was calculated accordingly. […]

HPAC cells = test: 3D proliferation inhibition of KRAS G12D mutated tumor cells, HPAC; format: cell-based, human; conditions: 3D methylcellulose culture, CTG, 120 hours
Source text: as §1, §2, §3, §4, §5, §6

KP-4 cells = test: 3D proliferation inhibition of KRAS G12D mutated tumor cells, KP-4; format: cell-based; conditions: CTG, 120 hours
Source text: as §1, §2, §3, §4, §5, §6

GP2D cells = test: 3D proliferation inhibition of KRAS G12D mutated tumor cells, GP2D; format: cell-based, human; conditions: 3D methylcellulose culture, CTG, 120 hours
Source text: as §1, §2, §3, §4, §5, §6

AsPC-1 cells = test: 3D proliferation inhibition of KRAS G12D mutated tumor cells, AsPC-1; format: cell-based; conditions: Homo sapiens, ASPC1, 3D methylcellulose culture, CTG, 120 hours
Source text: as §1, §2
as §3, with “After there were no visible air bubbles in the cell suspension, 80 μL of the cell suspension was added to each well of a 96-well plate, with a total of 1000-2000 cells. The cells in the 96-well plate were cultured overnight at 37° C., 5% CO2, and 95% humidity.” left out
as §5, §6

[2] = test system: KRAS G12D mutated AGS human gastric adenocarcinoma cells; test: Proliferation inhibition of KRAS G12D mutant AGS cells (CellTiter-Glo, 3 days; IC50 and single-point inhibition rate at 1 μM); format: cell-based; conditions: 72 h, 3 days incubation, max concentration 10 μM
Method: This experiment assessed and validated the proliferation inhibitory activity of some compounds of the present invention against KRAS G12D mutant AGS cells.
Incubate at 37° C., 5% CO2, 95% humidity.
The following materials, instruments, and reagents were used in this experiment: Fetal Bovine Serum FBS (GIBCO, Cat #10099-141); CellTiter-Glo® Luminescent Cell Viability Assay (Promega, Cat #G7572); 96-well clear flat-bottom black-wall plate (Corning®, Cat #3603); SpectraMax multimode microplate reader (MD, 2104-0010A); CO2 Incubator (Thermo Scientific, Model 3100 Series); Biosafety cabinet (Thermo Scientific, Model 1300 Series A2); Inverted microscope (Olympus, CKX41SF); AGS cell line was purchased from Nanjing Kebai Biotechnology Co., Ltd., under the lot number CBP60476.
Cell culture and inoculation: The cells in the logarithmic growth phase were harvested, and cell counting was performed using a platelet counter. The cell viability was detected by Trypan Blue exclusion method to ensure that the cell viability was above 90%. The cell concentration was adjusted. Then, 90 μL of the cell suspension was added to each well of a 96-well plate respectively, and the cells in the 96-well plate were cultured at 37° C. and 5% CO2.
Drug dilution and addition: a) For the preparation of drugs for single-point inhibition rate determination: A 10-fold concentrated drug solution was prepared. 10 μL of the drug solution was added to each well of the 96-well plate inoculated with cells to make the working concentration 1 μM, and three replicate wells were set for each drug concentration; b) For the preparation of drugs for IC50 determination: A 10-fold concentrated drug solution was prepared. 10 μL of the drug solution was added to each well of the 96-well plate inoculated with cells to make the maximum working concentration 10 μM, with a 3.16× dilution and a total of 9 concentrations. Three replicate wells were set for each drug concentration. The cells in the 96-well plate with the added drugs were incubated at 37° C. and 5% CO2 for another 3 days, and then the CTG assay was performed.
(§7) The CTG reagent was thawed, and the cell plate was equilibrated to room temperature for 30 minutes. An equal volume of CTG solution was added to each well, and the plate was shaken on an orbital shaker for 5 minutes to lyse the cells. The cell plate was placed at room temperature for 20 minutes to stabilize the luminescence signal, and then the luminescence value was read.
The data were analyzed using GraphPad Prism 7.0 software. The data were fitted by nonlinear S-curve regression to obtain the dose-response curve, and the IC50 value was calculated accordingly.

[3] = test system: KRAS G12D mutated AGS (3D) cells; test: Proliferation inhibition of KRAS G12D mutated AGS (3D) cells (methylcellulose 3D culture, CTG, 120 h); format: cell-based; conditions: Homo sapiens
Method: The inhibitory effect of representative compounds on the 3D proliferation of the AGS cell line was evaluated by non-adherent, spherical growth in a methylcellulose 3D culture medium.
The following materials, instruments and reagents were used in this experiment: Culture medium RPMI1640 (HyClone, Cat #SH30809.01); Fetal bovine serum FBS (GBICO, Cat #10099-141); CellTiter-Glo® Luminescent Cell Viability Assay (Novozymes Nanjing, Cat #DD1101-04); 96-well Polystyrene microplates (black-wall) (Greiner Bio one, Cat. #655096); Methylcellulose (SIGMA, CAS: 9004-67-5); AGS cells (KC-0405, Kangyuan Bochuang Biotechnology (Beijing) Co., Ltd.); Multifunctional microplate reader (BMG LABTECH, CLARIOstar® Plus); CO2 incubator (Thermo Scientific, Model 3100 Series).
Cell Culture and Inoculation: The cells in the logarithmic growth phase were harvested and cell counting was performed using a platelet counter. The cell viability was detected by Trypan Blue exclusion method to ensure that the cell viability was above 90%. The cell concentration was adjusted. After there were no visible air bubbles in the cell suspension, 180 μL of the cell suspension was added to each well of a 96-well plate respectively, so that the final concentration of methylcellulose was 0.65% and the number of cells was 2400 per well. The cells in the 96-well plate were cultured overnight at 37° C., 5% CO2 and 95% humidity.
The drug dilution and administration were carried out as follows: A 10-fold concentrated drug solution was prepared with the culture medium. 20 μL of the drug solution was added to each well of the 96-well plate inoculated with cells to make the maximum working concentration 10 μM, with a 3.16× dilution, a total of 9 concentrations. Three replicate wells were set for each drug concentration and the DMSO content was 0.1%. The cells in the 96-well plate with the added drugs were continuously cultured at 37° C., 5% CO2 and 95% humidity for 120 h, and then a CTG analysis was performed.
as §7, with “thawed” for “thawed,”
The data were analyzed using GraphPad Prism 7.0 software. The data were fitted by nonlinear S-curve regression to obtain the dose-response curve, and the IC50 value was calculated accordingly. Cell survival rate (%)=(LumTest drug−LumMedium control)/(LumCell control−LumMedium control)×100%.

IC50 [1]: 4 nM | IC50 (Panc 04.03 cells; 3D methylcellulose culture): 1.34 nM | IC50 (HPAC cells): 4.1 nM | IC50 (KP-4 cells; 3D methylcellulose culture): 4.74 nM | IC50 (GP2D cells): 0.39 nM
Compound: CN1CC/C(=C\F)[C@](C)(COc2nc(N3C[C@H]4CC[C@@H](C3)N4)c3cc(Cl)c(-c4c(F)ccc5sc(N)c(C#N)c45)c(F)c3n2)C1 (single isomer, unassigned) [Example 324-1]

IC50 ([1]; Homo sapiens): 28 nM | IC50 (Panc 04.03 cells; Homo sapiens, Panc 04.03, 3D methylcellulose culture): 20.6 nM | IC50 (HPAC cells; Homo sapiens, HPAC): 8.19 nM | IC50 (KP-4 cells; Homo sapiens, KP-4, 3D methylcellulose culture): 42.6 nM | IC50 (GP2D cells; Homo sapiens, GP2d): 3 nM | IC50 (AsPC-1 cells): 18.3 nM
Compound: C#Cc1c(F)ccc2cc(O)cc(-c3ncc4c(N5CC6CCC(C5)N6)nc(OC[C@@]56CCCN5C[C@H](F)C6)nc4c3F)c12 [MRTX1133, reference compound]

Compound: C#Cc1c(F)ccc2cc(O)cc(-c3c(F)cc4c(N5CC6CCC(C5)N6)nc(OC[C@]5(C)CN(CC=C)CCC5(F)F)nc4c3F)c12 (atropisomer, axis not shown; (Ra)) [Example 42]
IC50 [2]: 150 nM | IC50 [3]: 47 nM

Compound: C#Cc1c(F)ccc2cc(O)cc(-c3c(F)cc4c(N5CC6CCC(C5)N6)nc(OC[C@]5(C)CN(C)CCC5(F)F)nc4c3F)c12 [Example 6-2]
IC50 [2]: 32 nM | IC50 [3]: 17 nM

Compound: C#Cc1c(F)ccc2cc(O)cc(-c3c(F)cc4c(N5CC6CCC(C5)N6)nc(OC[C@]5(C)CN(CC)CCC5(F)F)nc4c3F)c12 (atropisomer, axis not shown; (Ra)) [Example 43, (Ra)-4-(4-((1R,5S)-3,8-diazabicyclo[3.2.1]octan-3-yl)-2-(((S)-1-ethyl-4,4-difluoro-3-methylpiperidin-3-yl)methoxy)-6,8-difluoroquinazolin-7-yl)-5-ethynyl-6-fluoronaphthalen-2-ol]
IC50 [2]: 37 nM | IC50 [3]: 11 nM

Compound: C#Cc1c(F)ccc2cc(O)cc(-c3c(F)cc4c(N5CC6CCC(C5)N6)nc(OC[C@]5(C)CN(CCF)CCC5(F)F)nc4c3F)c12 (atropisomer, axis not shown; (Ra)) [Example 44, (Ra)-4-(4-((1R,5S)-3,8-diazabicyclo[3.2.1]octan-3-yl)-2-(((S)-4,4-difluoro-1-(2-fluoroethyl)-3-methylpiperidin-3-yl)methoxy)-6,8-difluoroquinazolin-7-yl)-5-ethynyl-6-fluoronaphthalen-2-ol]
IC50 [2]: 217 nM | IC50 [3]: 118 nM

— patent US20260176284A1, “Compounds with Anti-KRAS Mutated Tumor Activity” (Trasveda Ltd., priority 2022, published 2026)
